Measurements from patent publication US12077503B2, “Substituted cyclic amides and their use as herbicides” (FMC CORPORATION, priority 2015, dated 2024).

Assays:
Type in all cases: in vivo
[1] = tested on: barnyardgrass (Echinochloa crus-galli); assay: Test G Pre-Emergence Protocol; conditions: Echinochloa crus-galli, pre-emergence, 312 h, evaluated after 13 days
Procedure, shortened: (§1)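 Under a 24/16° C day/night regime with 14 h light and 65% humidity, sown pots were sprayed after one day with compound (15.625, 62.5 or 250 g/ha; 50:50 acetone/water, 0.5% Tween 20). Damage was assessed visually 13 days later, 0 to 100.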

[2] = tested on: corn (Zea mays); assay: Test G Pre-Emergence Protocol; conditions: Zea mays, pre-emergence, 312 h, evaluated after 13 days
Procedure, shortened: as §1

[3] = tested on: giant foxtail (Setaria faberi); assay: Test G Pre-Emergence Protocol; conditions: Setaria faberi, pre-emergence, 312 h, evaluated after 13 days
Procedure, shortened: as §1

[4] = tested on: ivy-leaved morning glory (Ipomoea hederacea); assay: Test G Pre-Emergence Protocol; conditions: Ipomoea, pre-emergence, 312 h, evaluated after 13 days
Procedure, shortened: as §1

[5] = tested on: redroot pigweed (Amaranthus retroflexus); assay: Test G Pre-Emergence Protocol; conditions: Amaranthus retroflexus, pre-emergence, 312 h, evaluated after 13 days
Procedure, shortened: as §1

[6] = tested on: velvetleaf (Abutilon theophrasti); assay: Test G Pre-Emergence Protocol; conditions: Abutilon theophrasti, pre-emergence, 312 h, evaluated after 13 days
Procedure, shortened: as §1

[7] = tested on: barnyardgrass (Echinochloa crus-galli); assay: Test G Post-Emergence Protocol; conditions: Echinochloa crus-galli, post-emergence, 312 h, read-out: Barnyardgrass damage rating
Procedure, shortened: (§2)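 Eight days post-sowing, plants received a spray of test compound (acetone/water 50:50, 0.5% Tween 20) at 15.625, 62.5 or 250 g/ha. Glasshouse regime thereafter: 24/16 °C, 14 h light, 65% humidity. Assessment after 13 days on a 0–100 damage scale.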

[8] = tested on: corn (Zea mays); assay: Test G Post-Emergence Protocol; conditions: Zea mays, post-emergence, 312 h, read-out: Corn damage rating
Procedure, shortened: as §2

[9] = tested on: giant foxtail (Setaria faberi); assay: Test G Post-Emergence Protocol; conditions: Setaria faberi, post-emergence, 312 h, read-out: Foxtail, Giant damage rating
Procedure, shortened: as §2

[10] = tested on: ivy-leaved morning glory (Ipomoea hederacea); assay: Test G Post-Emergence Protocol; conditions: Ipomoea, post-emergence, 312 h, read-out: Morningglory, Ivy-leaved damage rating
Procedure, shortened: as §2

[11] = tested on: redroot pigweed (Amaranthus retroflexus); assay: Test G Post-Emergence Protocol; conditions: Amaranthus retroflexus, post-emergence, 312 h, read-out: Pigweed, Redroot damage rating
Procedure, shortened: as §2

[12] = tested on: velvetleaf (Abutilon theophrasti); assay: Test G Post-Emergence Protocol; conditions: Abutilon theophrasti, post-emergence, 312 h, read-out: Velvetleaf damage rating
Procedure, shortened: as §2

[13] = 15.625 g ai/ha, evaluated after 13 days (100=total damage to plant; 0=no damage to plant)
[14] = 62.5 g ai/ha, evaluated after 13 days, 100=total damage to plant, 0=no damage to plant
[15] = 250 g ai/ha, evaluated after 13 days, 100=total damage to plant, 0=no damage to plant

`COC(=O)c1cc([C@H]2CN(C)C(=O)[C@@H]2C(=O)Nc2cccc(F)c2F)ccc1C` (racemic) [Compound 1683] gave a pest or weed control at 15.625 g/ha ([1]; 15.625 g ai/ha, read-out: Barnyardgrass damage rating (100=total damage to plant; 0=no damage to plant)) of 60%, a pest or weed control at 62.5 g/ha ([1]; 62.5 g ai/ha, 100=total damage to plant, 0=no damage to plant, read-out: Barnyardgrass damage rating) of 70% and a pest or weed control at 250 g/ha ([1]; 250 g ai/ha, read-out: Barnyardgrass damage rating (100=total damage to plant; 0=no damage to plant)) of 80%. It also gave a plant injury at 15.625 g/ha ([2]; 15.625 g ai/ha, read-out: Corn damage rating (100=total damage to plant; 0=no damage to plant)) of 30%, a plant injury at 62.5 g/ha ([2]; 62.5 g ai/ha, 100=total damage to plant, 0=no damage to plant, read-out: Corn damage rating) of 50% and a plant injury at 250 g/ha ([2]; 250 g ai/ha, read-out: Corn damage rating (100=total damage to plant; 0=no damage to plant)) of 80%. It also gave a pest or weed control at 15.625 g/ha ([3]; 15.625 g ai/ha, read-out: Foxtail, Giant damage rating (100=total damage to plant; 0=no damage to plant)) of 70%, a pest or weed control at 62.5 g/ha ([3]; 62.5 g ai/ha, 100=total damage to plant, 0=no damage to plant, read-out: Foxtail, Giant damage rating) of 80% and a pest or weed control at 250 g/ha ([3]; 250 g ai/ha, read-out: Foxtail, Giant damage rating (100=total damage to plant; 0=no damage to plant)) of 90%. It also gave a pest or weed control at 15.625 g/ha ([4]; 15.625 g ai/ha, read-out: Morningglory, Ivy-leaved damage rating (100=total damage to plant; 0=no damage to plant)) of 0%, a pest or weed control at 62.5 g/ha ([4]; 62.5 g ai/ha, 100=total damage to plant, 0=no damage to plant, read-out: Morningglory, Ivy-leaved damage rating) of 10% and a pest or weed control at 250 g/ha ([4]; 250 g ai/ha, read-out: Morningglory, Ivy-leaved damage rating (100=total damage to plant; 0=no damage to plant)) of 60%. The pest or weed control at 15.625 g/ha ([5]; 15.625 g ai/ha, read-out: Pigweed, Redroot damage rating (100=total damage to plant; 0=no damage to plant)) was 20%, the pest or weed control at 62.5 g/ha ([5]; 62.5 g ai/ha, 100=total damage to plant, 0=no damage to plant, read-out: Pigweed, Redroot damage rating) was 20% and the pest or weed control at 250 g/ha ([5]; 250 g ai/ha, read-out: Pigweed, Redroot damage rating (100=total damage to plant; 0=no damage to plant)) was 20%. The pest or weed control at 15.625 g/ha ([6]; 15.625 g ai/ha, read-out: Velvetleaf damage rating (100=total damage to plant; 0=no damage to plant)) was 0%, the pest or weed control at 62.5 g/ha ([6]; 62.5 g ai/ha, 100=total damage to plant, 0=no damage to plant, read-out: Velvetleaf damage rating) was 10% and the pest or weed control at 250 g/ha ([6]; 250 g ai/ha, read-out: Velvetleaf damage rating (100=total damage to plant; 0=no damage to plant)) was 30%. For the same compound, the pest or weed control at 15.625 g/ha [7, 13] was 70%, the pest or weed control at 62.5 g/ha [7, 14] was 70% and the pest or weed control at 250 g/ha [7, 15] was 80%. It also gave a plant injury at 15.625 g/ha [8, 13] of 20%, a plant injury at 62.5 g/ha [8, 14] of 40% and a plant injury at 250 g/ha [8, 15] of 80%. The pest or weed control at 15.625 g/ha [9, 13] was 70%, the pest or weed control at 62.5 g/ha [9, 14] was 80% and the pest or weed control at 250 g/ha [9, 15] was 80%. It also gave a pest or weed control at 15.625 g/ha [10, 13] of 30%, a pest or weed control at 62.5 g/ha [10, 14] of 30% and a pest or weed control at 250 g/ha [10, 15] of 50%. It also gave a pest or weed control at 15.625 g/ha [11, 13] of 30%, a pest or weed control at 62.5 g/ha [11, 14] of 10% and a pest or weed control at 250 g/ha [11, 15] of 40%. The pest or weed control at 15.625 g/ha [12, 13] was 0%, the pest or weed control at 62.5 g/ha [12, 14] was 20% and the pest or weed control at 250 g/ha [12, 15] was 50%.
